Test system: patients with recurrent malignant glioma classified as WHO grade III or IV
Assay: Phase 1 dose-escalation clinical trial: safety (TEAEs, DLTs, MTD);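 note: dosing continued until unacceptable toxicity, consent withdrawal, loss to follow-up or investigator/sponsor decision, with cohorts of 1-6 patients per dose level and MTD estimated by BLRM from cumulative DLT data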
[1] = 80 mg (N=3), cutoff April 21, 2023
[2] = 80 mg QD (N=3), cutoff April 21, 2024
[3] = 120 mg (N=6), cutoff April 21, 2023
[4] = 120 mg QD (N=6), cutoff April 21, 2024
[5] = 180 mg (N=3), cutoff April 21, 2023
[6] = 180 mg QD (N=6), cutoff April 21, 2024

Method: Administration to each subject was continued until unacceptable toxicity occurred, consent was withdrawn, the subject was lost to follow-up, or discontinuation was determined by the investigator and/or the sponsor.
The present study consists of two parts: a dose-escalation part (Part 1) and a dose-expansion part (Part 2).
Each dose level was evaluated in cohorts of 1-6 patients. In all cohorts, administration of the investigational drug to the second and subsequent patients was permitted after completion of all safety assessments on Day 8 of Cycle 1 in the first patient. […] At dose level 2 in the dose-escalation part, at least three patients were required to be evaluated before escalation to a higher dose level. After completion of each cohort, the probability of observing a DLT at each dose level in the present study was updated using the BLRM based on cumulative data from the preceding cohorts, and the MTD was estimated.

For `CC1(C)Oc2cc(Cl)ccc2[C@@H]2OCC3(CCN(CCn4ccnc4)CC3)C[C@H]21` [Compound 1, (4'aR,10'bR)-8'-chloro-1-[2-(1H-imidazol-1-yl)ethyl]-5',5'-dimethyl-4'a,10'b-dihydro-2'H,4'H,5'H-spiro[piperidine-4,3'-pyrano[3,2-c][1]benzopyran] diphosphate], the “TEAE: hypertrigly-ceridaemia” value [1] was 0 n (%), the “TEAE: hyponatremia” value [1] was 1 (33.3) n (%) and the “TEAE: increased alanine aminotransferase” value [1] was 2 (66.7) n (%). For the same compound, the “TEAE: increased aspartate aminotransferase” value [1] was 0 n (%), the “TEAE: nausea” value [1] was 2 (66.7) n (%) and the “TEAE: seizure” value [1] was 0 n (%). For the same compound, the “TEAE: vomiting” value [1] was 0 n (%), the “Number of Patients with Any TEAE” value [2] was 3 (100) n (%) and the “TEAE: Confusional state” value [2] was 0 n (%). The “TEAE: Gait disturbance” value [2] was 0 n (%), the “TEAE: Gastrointestinal disorder” value [2] was 0 n (%) and the “TEAE: Hiccups” value [2] was 0 n (%). The “TEAE: Tremor” value [2] was 0 n (%), the “TEAE: alopecia” value [2] was 0 n (%) and the “TEAE: constipation” value [2] was 0 n (%). For the same compound, the “TEAE: decreased appetite” value [2] was 0 n (%), the “TEAE: decreased lymphocyte count” value [2] was 0 n (%) and the “TEAE: decreased neutrophil count” value [2] was 2 (66.7) n (%). The “TEAE: decreased platelet count” value [2] was 1 (33.3) n (%), the “TEAE: diarrhea” value [2] was 0 n (%) and the “TEAE: dry skin” value [2] was 0 n (%). The “TEAE: fall” value [2] was 0 n (%), the “TEAE: fatigue” value [2] was 0 n (%) and the “TEAE: headache” value [2] was 1 (33.3) n (%). The “TEAE: hypertrigly-ceridaemia” value [2] was 0 n (%), the “TEAE: hyponatremia” value [2] was 1 (33.3) n (%) and the “TEAE: increase in blood cholesterol” value [2] was 0 n (%). The “TEAE: increased alanine aminotransferase” value [2] was 2 (66.7) n (%), the “TEAE: increased aspartate aminotransferase” value [2] was 0 n (%) and the “TEAE: maculopapular rash” value [2] was 0 n (%). For the same compound, the “TEAE: nausea” value [2] was 2 (66.7) n (%), the “TEAE: seizure” value [2] was 0 n (%) and the “TEAE: vomiting” value [2] was 0 n (%). For the same compound, the “Number of patients with any TEAE” value [3] was 6 (100) n (%), the “TEAE: constipation” value [3] was 2 (33.3) n (%) and the “TEAE: decreased appetite” value [3] was 0 n (%). For the same compound, the “TEAE: decreased lymphocyte count” value [3] was 0 n (%), the “TEAE: decreased neutrophil count” value [3] was 1 (16.7) n (%) and the “TEAE: decreased platelet count” value [3] was 0 n (%). For the same compound, the “TEAE: decreased white blood cell count” value [3] was 0 n (%), the “TEAE: dry skin” value [3] was 1 (16.7) n (%) and the “TEAE: fall” value [3] was 1 (16.7) n (%). The “TEAE: headache” value [3] was 2 (33.3) n (%), the “TEAE: hypertrigly-ceridaemia” value [3] was 1 (16.7) n (%) and the “TEAE: hyponatremia” value [3] was 1 (16.7) n (%). For the same compound, the “TEAE: increased alanine aminotransferase” value [3] was 2 (33.3) n (%), the “TEAE: increased aspartate aminotransferase” value [3] was 1 (16.7) n (%) and the “TEAE: nausea” value [3] was 2 (33.3) n (%). For the same compound, the “TEAE: seizure” value [3] was 1 (16.7) n (%), the “TEAE: vomiting” value [3] was 2 (33.3) n (%) and the “Number of Patients with Any TEAE” value [4] was 6 (100) n (%). The “TEAE: Confusional state” value [4] was 0 n (%), the “TEAE: Gait disturbance” value [4] was 0 n (%) and the “TEAE: Gastrointestinal disorder” value [4] was 0 n (%). For the same compound, the “TEAE: Hiccups” value [4] was 0 n (%), the “TEAE: Tremor” value [4] was 0 n (%) and the “TEAE: alopecia” value [4] was 0 n (%). For the same compound, the “TEAE: constipation” value [4] was 2 (33.3) n (%), the “TEAE: decreased appetite” value [4] was 0 n (%) and the “TEAE: decreased lymphocyte count” value [4] was 0 n (%). The “TEAE: decreased neutrophil count” value [4] was 1 (16.7) n (%), the “TEAE: decreased platelet count” value [4] was 0 n (%) and the “TEAE: diarrhea” value [4] was 1 (16.7) n (%). For the same compound, the “TEAE: dry skin” value [4] was 1 (16.7) n (%), the “TEAE: fall” value [4] was 1 (16.7) n (%) and the “TEAE: fatigue” value [4] was 0 n (%). The “TEAE: headache” value [4] was 2 (33.3) n (%), the “TEAE: hypertrigly-ceridaemia” value [4] was 1 (16.7) n (%) and the “TEAE: hyponatremia” value [4] was 1 (16.7) n (%). For the same compound, the “TEAE: increase in blood cholesterol” value [4] was 0 n (%), the “TEAE: increased alanine aminotransferase” value [4] was 2 (33.3) n (%) and the “TEAE: increased aspartate aminotransferase” value [4] was 1 (16.7) n (%). For the same compound, the “TEAE: maculopapular rash” value [4] was 0 n (%), the “TEAE: nausea” value [4] was 2 (33.3) n (%) and the “TEAE: seizure” value [4] was 1 (16.7) n (%). The “TEAE: vomiting” value [4] was 2 (33.3) n (%), the “serious TEAE: aphasia” value (120 mg QD group, cutoff April 21, 2024) was “one” and the “serious TEAE: aphasia” value (120 mg group, cutoff April 21, 2023) was “one”. The “Number of patients with any TEAE” value [5] was 3 (100) n (%), the “TEAE: constipation” value [5] was 1 (33.3) n (%) and the “TEAE: decreased appetite” value [5] was 1 (33.3) n (%). For the same compound, the “TEAE: decreased lymphocyte count” value [5] was 1 (33.3) n (%), the “TEAE: decreased neutrophil count” value [5] was 1 (33.3) n (%) and the “TEAE: decreased platelet count” value [5] was 1 (33.3) n (%). The “TEAE: decreased white blood cell count” value [5] was 0 n (%), the “TEAE: dry skin” value [5] was 0 n (%) and the “TEAE: fall” value [5] was 1 (33.3) n (%). For the same compound, the “TEAE: headache” value [5] was 0 n (%), the “TEAE: hypertrigly-ceridaemia” value [5] was 1 (33.3) n (%) and the “TEAE: hyponatremia” value [5] was 0 n (%). For the same compound, the “TEAE: increased alanine aminotransferase” value [5] was 2 (66.7) n (%), the “TEAE: increased aspartate aminotransferase” value [5] was 0 n (%) and the “TEAE: nausea” value [5] was 1 (33.3) n (%). The “TEAE: seizure” value [5] was 1 (33.3) n (%), the “TEAE: vomiting” value [5] was 1 (33.3) n (%) and the “Number of Patients with Any TEAE” value [6] was 6 (100) n (%). For the same compound, the “TEAE: Confusional state” value [6] was 1 (16.7) n (%), the “TEAE: Gait disturbance” value [6] was 1 (16.7) n (%) and the “TEAE: Gastrointestinal disorder” value [6] was 2 (33.3) n (%). The “TEAE: Hiccups” value [6] was 0 n (%) and the “TEAE: Tremor” value [6] was 2 (33.3) n (%).

— patent EP4806435A1, “DIHYDROCHROMENE-DERIVATIVE-CONTAINING THERAPEUTIC AGENT FOR CANCER” (Sumitomo Pharma Co., Ltd., priority 2023, dated 2025)
